Where two headings read alike, the source gives them in different places.
Assays:
[1] = biological target: T1, STAT3 Cys712 mutant (C712A) (Homo sapiens, UniProt P40763, C712A); test: SH2 binding AlphaScreen assay with Cys712 mutant recombinant STAT3; settings: 100 μM BENDA, 375 nM mutant STAT3, 30 min
T1 construct: Full-length cDNAs were obtained from a human cDNA library by PCR; Avi-tag (N); 6His-tag (N); made in house; host or cells: Escherichia coli (pET-28a; host inferred to be the same BirA-BL21 as for wild type)
T1 sequence (P40763 whole entry C712A): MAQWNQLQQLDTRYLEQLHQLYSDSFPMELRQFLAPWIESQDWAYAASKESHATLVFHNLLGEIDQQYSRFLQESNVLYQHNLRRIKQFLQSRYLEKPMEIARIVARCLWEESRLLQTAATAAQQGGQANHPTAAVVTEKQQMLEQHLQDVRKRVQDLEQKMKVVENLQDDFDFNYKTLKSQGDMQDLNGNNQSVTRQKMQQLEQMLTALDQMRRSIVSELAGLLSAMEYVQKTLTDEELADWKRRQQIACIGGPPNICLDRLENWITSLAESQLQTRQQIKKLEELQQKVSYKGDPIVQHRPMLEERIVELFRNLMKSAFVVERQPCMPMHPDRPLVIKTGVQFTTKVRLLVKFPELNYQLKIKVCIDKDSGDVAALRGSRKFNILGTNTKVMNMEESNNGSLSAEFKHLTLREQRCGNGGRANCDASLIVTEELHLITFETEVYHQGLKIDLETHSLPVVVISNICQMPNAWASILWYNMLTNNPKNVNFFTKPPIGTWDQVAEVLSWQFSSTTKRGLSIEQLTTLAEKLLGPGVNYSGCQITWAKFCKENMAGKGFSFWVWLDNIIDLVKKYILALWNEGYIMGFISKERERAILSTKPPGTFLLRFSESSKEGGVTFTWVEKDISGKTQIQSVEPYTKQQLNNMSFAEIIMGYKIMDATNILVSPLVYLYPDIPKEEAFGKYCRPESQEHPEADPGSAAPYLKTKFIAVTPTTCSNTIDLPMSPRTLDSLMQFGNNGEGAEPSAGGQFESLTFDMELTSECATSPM
Protocol: (§1) Point mutations were introduced into recombinant human STAT3 (rhSTAT3) by inverse PCR. We mutated Cys468, Cys542, Cys550, Cys687, and Cys712 near the SH2 domain to alanine. Inverse PCR was performed by using pBluescript II KS (+) as a template, KOD-Plus-ver. 2 (Toyobo, Osaka, Japan), and the following oligonucleotide primer set: Cys468 (forward: 5’-TCCAACATCG CTCAGATGCC AAATG-3’, reverse: 5′-GATCACCACA ACTGGCAAGG AGTGG-3′); Cys542 (forward: 5′-GAATTATTCAGGGGCTCAGATCACATGGGCTAAAT-3′, reverse: 5′-ACACCAGGTC CCAAGAGTTT CTCTGCC-3′); Cys550 (forward: 5′-GCTAAATTTG CCAAAGAAAA CATGGCTGGC-3′, reverse: 5′-CCATGTGATC TGACACCCTG AATAATTCA CACC-3′); Cys687 (forward: 5′-GGAAAGTATG CTCGGCCAGA GAGCCAG-3′, reverse: 5′-GAATGCCTCC TCCTTGGGAA TGTCAGG-3′); and Cys712 (forward: 5′-AAGTTTATCG CTGTGACACC AACGACCTGC-3′, reverse: 5′-GGTCTTCAGG TATGGGGCAG CGCTAC-3′). Inverse PCR (1 × PCR buffer, 1.5 mM MgSO4, 15 pmol 5′ primer and 3′ primer, 0.2 mM dNTPs, 50 ng STAT3 cDNA, 1 U KOD Plus) was performed under the following conditions: 2 min at 94°C, (10 s at 98°C, and 6.5 min at 68°C)×7 cycles. The amplified fragment was ligated by using Ligation High ver. 2 (Toyobo). The resultant plasmid was cloned into the HindIII/XhoI sites of modified pET-28a (+). The nucleotides coding for human mutant STAT3 in pET-28a (+) were named mutant STAT3 His-Avi-pET28a (+). […]

[2] = system: cyclin D1, survivin and Bcl-2 mRNA in MDA-MB-468 cells; test: RT-PCR of STAT3 target genes cyclin D1, survivin, Bcl-2; type: cell-based, human; settings: MDA-MB-468, 50 or 100 μM, 8 h
[3] = biological target: T2, STAT3 Cys550 mutant (C550A) (Homo sapiens, UniProt P40763, C550A); test: SH2 binding AlphaScreen assay with Cys550 mutant recombinant STAT3; settings: 100 μM BENDA, 375 nM mutant STAT3, 30 min
T2 construct: Full-length cDNAs were obtained from a human cDNA library by PCR; Avi-tag (N); 6His-tag (N); made in house; host or cells: Escherichia coli (pET-28a; host inferred to be the same BirA-BL21 as for wild type)
T2 sequence (P40763 whole entry C550A): as the sequence (P40763 whole entry C712A) above, with C550A, A712C counted along it
Protocol: as §1

[4] = biological target: T3, STAT3-CFP / STAT3-YFP in HEK293 cells (Homo sapiens, UniProt P40763); test: FRET assay of STAT3 dimerization; type: cell-based; settings: HEK293, 10, 20 or 50 μM, pretreatment before 50 ng/mL IL-6 stimulation
T3 construct: expressed in transfected cells; host or cells: HEK293
T3 sequence (P40763 whole entry): as the sequence (P40763 whole entry C712A) above, with A712C counted along it
Protocol: The expression vectors for the fusion proteins STAT3-CFP and STAT3-YFP were prepared by the addition of STAT3 cDNA to pAmCyan1-N1 and pZsyellow1-N1. The vector mixture (1:1) was transfected into HEK293 cells with Lipofectamine 2000. The cells were cultured with 2% FBS DMEM for 48 h in a 96-well microtiter plate, treated with 0, 10, 20, or 50 μM BENDA or HP2 in a final DMSO concentration of 0.2% for 24 h, and then stimulated with 50 ng/mL IL-6 for a further 1 h. Fluorescence signals were measured (SpectraMax M5SK). The signals measured by FRET (excitation/emission: 436/528 nm) were corrected for crosstalk signals from cyan (excitation/emission: 436/488 nm) and yellow (excitation/emission: 517/528 nm).

[5] = system: c-Myc protein in MDA-MB-468 cells; test: Western blotting of c-Myc protein; type: cell-based, human; settings: MDA-MB-468, 50 or 100 μM, 24 h
Protocol: Cells were treated with PhosphoSafe Extraction Reagent. Total proteins (40 μg) were subjected to SDS-PAGE and then transferred onto a nitrocellulose membrane. Membranes were blocked in 5% skim milk in TBS/0.1% Tween 20, incubated with primary antibodies diluted at 1:1000 in 1.5% skim milk in TBS (pH 7.4)/0.1% Tween 20 overnight at 4°C, and then incubated with HRP-conjugated secondary antibodies diluted at 1:5000 in TBS (pH 7.4)/0.1% Tween 20 for 1 h at room temperature. Immunoblots were developed with a chemiluminescent substrate.

[6] = system: c-myc mRNA in MDA-MB-468 cells; test: RT-PCR of c-myc mRNA; type: cell-based, human; settings: 8 h
[7] = system: MDA-MB-468 cells (high P-STAT3); test: WST cell proliferation assay, MDA-MB-468; type: cell-based, human; settings: 0.1-100 μM, 48 h, WST-8
Protocol: Cells were plated in a 96-well tissue culture plate (1000 cells per well) and incubated for 48 h. After incubation, the cells were treated with vehicle, 0.1–100 μM BENDA, or HP2 for 48 h. Samples were assayed in triplicate. After incubation, WST-8 solution (10 μL; Dojindo Molecular Technologies, Rockville, MD, USA) was added to each well and incubated at 37°C for 4 h, and the absorbance was read at 450 nm.

cells = system: cells; design: method as in PMID 22768280; settings: cited from earlier work

Cn1c(CCCC(=O)O)nc2cc(N(CCCl)CCCl)ccc21 [BENDA, 4-{5-[bis(2-chloroethyl)amino]-1-methyl-2-benzimidazolyl} butyric acid]
inhibition at 100 µM [1]: 25% | Bcl-2 mRNA expression [2]: dose-dependent decrease | cyclin D1 mRNA expression [2]: dose-dependent decrease | survivin mRNA expression [2]: dose-dependent decrease | inhibition at 100 µM [3]: 3% | Effect on FRET signals (STAT3 dimerization) [4]: reduced the FRET signals | Expression of c-Myc protein [5]: inhibited the expression of c-Myc protein | c-myc mRNA expression, % of vehicle treatment ([6]; MDA-MB-468, 50 μM): 72% | c-myc mRNA expression, % of vehicle treatment ([6]; MDA-MB-468, 100 μM): 33% | Inhibition of proliferation of MDA-MB-468 cells [7]: inhibited proliferation | Cell cycle arrest (cells; 50 μM): transiently arrested cells in G2 | Cell cycle arrest (cells; 200 μM): arrested cells in S phase

— PMC5268383, “Inhibition of STAT3 by Anticancer Drug Bendamustine” (PLoS ONE, 2017)
